In test [1] the test system is neutrophilia in the rat airway. Kind of test: Effect on neutrophilia in the rat airway (LPS inhalation, neutrophil count in bronchoalveolar washings). Format: in vivo, Wister rats. The note with it: oral 1 mg/kg, 3 mg/kg and 10 mg/kg, 30 min before LPS inhalation; washings about 5 hours after inhalation. The procedure:
Male Wister rats weighing from 100 to 200 g were put in a clear plastic inhalation box for small animals (W30×H30×D30 cm), and 30 mL of a lipopolysaccharide solution (LPS E. coli 0.3 mg/mL saline) atomized to an average particle size of 2.0-6.0 μm was administered by inhalation from an ultrasonic nebulizer (TUR-3200, NIHON KOHDEN) for 30 minutes.
The lipopolisaccharide inhalation was preceded, 30 minutes in advance, by oral administration of Compound A suspended in 0.5% methylcellulose (MC) at doses of 1 mg/4 mL/kg, 3 mg/4 mL/kg and 10 mg/4 mL/kg, or by oral administration of 0.5% MC at a dose of 2 mL/kg to a solvent group. […]
About 5 hours after the lipopolisaccharide inhalation, bronchoalveolar washings were collected. […] The total number of leukocytes in the suspension was counted with a multichannel blood cell counter and designated as the total leukocyte count.
Further, after the cell suspension was adjusted to a total leukocyte count of 1×10^6 cells/mL, 100 μL of the suspension was centrifuged at room temperature at 400 rpm for 4 minutes in a cytocentrifuge (Thermo Shandon) and made into smears. The smears were stained with Diff-Quick (International Reagents Co., Ltd.), and monocytes, eosinophils and neutrophils were counted under an inverted microscope (×400) to about 500 cells. […]

Test [2] concerns airway neutrophilia induced by exposure to tobacco smoke. Kind of test: Guinea pig respiratory dysfunction model with airway neutrophilia induced by exposure to tobacco smoke. Type of test: in vivo, Hartley guinea pigs. The note with it: oral 10 mg/kg before each tobacco smoke exposure, 3 weeks, measured the day after. The procedure: Hartley guinea pigs weighing from 350 to 450 g were exposed to cigarette smoke for an hour per day, five days per week, for 3 weeks, by using a tobacco smoke exposer and an exposure chamber (Flow-pasttype nose-only inhalation chamber, Muenster).
The tobacco smoke exposure was preceded, 15-45 minutes in advance, by oral administration of the compound suspended in 0.5% methylcellulose (MC) at a dose of 10 mg/2 mL/kg or by oral administration of 0.5% MC at a dose of 2 mL/kg to a solvent group. To the non-treatment group, 0.5% MC was orally administered at a dose of 2 mL/kg, 15-45 minutes before air exposure. From 4 to 6 […] were carried out for each group. The airway resistances and neutrophil counts were measured the day after three weeks of the tobacco smoke exposure. The airway resistances were measured by double chamber plethysmography with a respiratory function tester (Puloms-1, M.I.P.S.) during wakefulness. The neutrophil counts were measured in the same manner as in Test Example 1. The effect of Compound A was evaluated by calculating the suppression ratio (%) in accordance with the following formula.
Suppression ratio=((measured value for the control group−measured value for the normal value)−(measured value for the Compound A group−measured value for the normal group))×100/(measured value for the control group−measured value for the normal value)

SMILES strings stand for the structures.

As to `Cl.O=c1[nH]nc(OCCCc2ccc(Cl)cc2)c(NCc2cccnc2)c1Br` [Compound A, 4-bromo-6-[3-(4-chlorophenyl)propoxy]-5-(3-pyridylmethylamino)-3(2H)-pyridazinone hydrochloride], the “antineutrophilia effect in the rat airways (neutrophil counts in bronchoalveolar washings)” value in test [1] is recorded as “had antineutrophilia effect”. In addition, the “suppression ratio of increase in airway resistance” value in test [2] (double chamber plethysmography) is on record as 100%. Further, the “suppression ratio of neutrophilia (neutrophil count)” value in test [2] is on record as 73%.

The values are drawn from patent US20080306080A1, “NEUTROPHILIA INHIBITOR” (Nissan Chemical Industries, Ltd., priority 2003, published 2008).
